The target of one test is human PTPN2 (1-387) (Homo sapiens (Human), UniProt P17706). Nature of the test: Human PTPN2 Biochemical Assay. The conditions noted are these: DiFMUP substrate. An outline of the steps: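 Fluorogenic DiFMUP hydrolysis (1 h, room temperature, read ex 360/em 460 nm) after 30 min compound preincubation with PTPN2 residues 1-387, in 50 mM Tris pH 7.4, 150 mM NaCl, 0.01% Tween20, 0.5 mM DTT. Effects scaled between buffer and enzyme controls, 4-parameter fit gives EC50.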

Another test has as its target human PTPN1 (1-435) (Homo sapiens (Human), UniProt P18031). Description: Human PTPN1 Biochemical Assay. The conditions noted are these: DiFMUP substrate, read-out: PTP1B IC50. An outline of the steps:
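Read-out is DiFMUP hydrolysis fluorescence (360 nm excitation, 460 nm emission) after 1 h at room temperature, following 30 min enzyme–compound preincubation.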

The text below walks through data of patent publication US20250059220A1, “SUBSTITUTED BENZOTHIOPHENE DERIVATIVES AND METHODS OF USE THEREOF” (Merck Sharp & Dohme LLC, priority 2021, published 2025).

Chain of human PTPN2 (1-387) (P17706 other isoform, or with tags, fused parts or gaps): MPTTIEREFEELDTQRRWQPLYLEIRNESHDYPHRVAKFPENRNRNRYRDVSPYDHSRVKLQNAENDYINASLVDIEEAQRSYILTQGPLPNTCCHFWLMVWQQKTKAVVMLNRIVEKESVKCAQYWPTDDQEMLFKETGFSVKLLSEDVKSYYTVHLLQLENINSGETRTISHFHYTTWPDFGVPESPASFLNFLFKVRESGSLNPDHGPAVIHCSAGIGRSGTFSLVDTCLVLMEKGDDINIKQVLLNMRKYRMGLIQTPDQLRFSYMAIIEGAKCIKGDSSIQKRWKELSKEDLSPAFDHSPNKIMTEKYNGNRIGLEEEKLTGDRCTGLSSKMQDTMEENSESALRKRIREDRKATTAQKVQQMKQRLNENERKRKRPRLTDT
Chain of human PTPN1 (1-435) (P18031 whole entry): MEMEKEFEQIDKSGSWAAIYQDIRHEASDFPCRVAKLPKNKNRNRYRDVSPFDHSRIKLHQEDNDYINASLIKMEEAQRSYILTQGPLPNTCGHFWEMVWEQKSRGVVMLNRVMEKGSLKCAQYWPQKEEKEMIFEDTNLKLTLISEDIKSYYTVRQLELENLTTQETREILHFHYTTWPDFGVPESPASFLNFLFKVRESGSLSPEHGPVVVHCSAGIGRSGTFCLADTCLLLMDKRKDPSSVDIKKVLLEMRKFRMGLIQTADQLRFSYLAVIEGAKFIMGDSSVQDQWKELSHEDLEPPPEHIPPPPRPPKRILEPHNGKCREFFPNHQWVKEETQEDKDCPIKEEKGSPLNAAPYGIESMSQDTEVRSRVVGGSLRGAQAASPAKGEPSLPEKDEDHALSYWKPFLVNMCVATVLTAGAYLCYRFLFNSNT

The term IC50 denotes the midpoint of a concentration-inhibition curve. With `Cc1cc(NC(=O)c2ccc3sc(C(F)(F)P(=O)(O)O)c(Br)c3c2)n(Cc2ccccc2)n1` [Compound 73], the IC50 was 3080 nM at human PTPN2 (1-387) and 2560 nM on human PTPN1 (1-435).
Taken in the same sequence, the figures for `NC(=O)c1cc(OCCC2CC2)c2sc(C(F)(F)P(=O)(O)O)c(Br)c2c1` [Compound 255] were 96.4 nM and 139 nM.
Taken in the same sequence, the figures for `NC(=O)c1cc(OCc2ccc(C(F)(F)F)cc2F)c2sc(C(F)(F)P(=O)(O)O)c(Br)c2c1` [Compound 338] were 51.2 nM and 74.4 nM.
As for `O=C(NC1COc2ccccc2C1)c1ccc2sc(C(F)(F)P(=O)(O)O)c(Br)c2c1` (stereo not drawn) [Compound 110], the results for the IC50 on human PTPN2 (1-387) and at human PTPN1 (1-435) were 3560 nM and 3200 nM, respectively.
For the compound `COc1ccc2c(c1)C(CC(C)NC(=O)c1ccc3sc(C(F)(F)P(=O)(O)O)c(Br)c3c1)C=N2` (stereo not drawn) [Compound 152], the IC50 on human PTPN2 (1-387) was determined as 8220 nM; on human PTPN1 (1-435) it was 4410 nM.
In the same order, the values of `CC(C)C1CC(CNC(=O)c2ccc3sc(C(F)(F)P(=O)(O)O)c(Br)c3c2)C1` (stereo not drawn) [Compound 93] are 4330 nM and 4130 nM.
Take `O=C(NC1CCC(F)(F)CC1)c1ccc2sc(C(F)(F)P(=O)(O)O)c(Br)c2c1` [Compound 36]: the IC50 against human PTPN2 (1-387) came out at 3920 nM; at human PTPN1 (1-435), 2750 nM.
Taken in the same sequence, the figures for `CS(=O)(=O)CCCOc1cc(C(N)=O)cc2cc(C(F)(F)P(=O)(O)O)sc12` [Compound 453, ammonium ((5-carbamoyl-7-(3-(methylsulfonyl)propoxy)benzo[b]thiophen-2-yl)difluoromethyl)phosphonate] were 9580 nM and 7860 nM.
In the same order, the values of `CC(NC(=O)c1ccc2sc(C(F)(F)P(=O)(O)O)c(Br)c2c1)c1nncn1C` (stereo not drawn) [Compound 175] are 2020 nM and 1420 nM.
`CS(=O)(=O)CCCOc1cc(-c2nc[nH]n2)cc2c(C#N)c(C(F)(F)P(=O)(O)O)sc12` [Compound 428]: the IC50 against human PTPN2 (1-387) and at human PTPN1 (1-435) was 2.5 nM throughout.
With `O=C(Nc1ccccc1OC1CCOCC1)c1ccc2sc(C(F)(F)P(=O)(O)O)c(Br)c2c1` [Compound 108], the IC50 against human PTPN2 (1-387) was found to be 3620 nM; on human PTPN1 (1-435), 4080 nM.
Taken in the same sequence, the figures for `N#Cc1c(C(F)(F)P(=O)(O)O)sc2c(OCCCS(N)(=O)=O)cc(-c3c[nH]nn3)cc12` [Compound 455, ((3-cyano-7-(3-sulfamoylpropoxy)-5-(1H-1,2,3-triazol-4-yl)benzo[b]thiophen-2-yl)difluoromethyl)phosphonic acid] were 2.69 nM and 3.6 nM.
In the case of `NC(=O)COc1cc(C(N)=O)cc2c(Br)c(C(F)(F)P(=O)(O)O)sc12` [Compound 245], the IC50 is 1460 nM against human PTPN2 (1-387) and 903 nM at human PTPN1 (1-435).
In the same order, the values of `CC(NC(=O)c1ccc2sc(C(F)(F)P(=O)(O)O)c(Br)c2c1)c1cnccn1` (stereo not drawn) [Compound 103] are 3460 nM and 3140 nM.
Taken in the same sequence, the figures for `NC(=O)c1cc(OCC2CC(F)(F)C2(F)F)c2sc(C(F)(F)P(=O)(O)O)c(Br)c2c1` (stereo not drawn) [Compound 275] were 176 nM and 83 nM.
In the same order, the values of `NC(c1cc(OCCCC(F)(F)F)c2sc(C(F)(F)P(=O)(O)O)c(Br)c2c1)C(F)(F)F` (single isomer, unassigned) [Compound 261, (R or S)-((5-(1-amino-2,2,2-trifluoroethyl)-3-bromo-7-(4,4,4-trifluorobutoxy)benzo[b]thiophen-2-yl)difluoromethyl)phosphonic acid] are 5880 nM and 2020 nM.
With `O=C(Nc1ccc2sc(C(F)(F)P(=O)(O)O)c(Br)c2c1)C(F)(F)F` [Compound 213], the IC50 against human PTPN2 (1-387) came to 6360 nM; at human PTPN1 (1-435), 5290 nM.
Taken in the same sequence, the figures for `CC1CCS(=O)(=O)C1CCOc1cc(C(N)=O)cc2c(Br)c(C(F)(F)P(=O)(O)O)sc12` (single isomer, unassigned) [Compound 394] were 34.2 nM and 26.1 nM.
Consider `NC(=O)c1cc(OCC2C(F)(F)C23CCC3)c2sc(C(F)(F)P(=O)(O)O)c(Br)c2c1` (stereo not drawn) [Compound 294], for which the concentration for half-maximal inhibition (IC50) against human PTPN2 (1-387) was 80.7 nM; at human PTPN1 (1-435), 38 nM.
Taken in the same sequence, the figures for `N#Cc1c(C(F)(F)P(=O)(O)O)sc2c(OCCCS(N)(=O)=O)cc(C(N)=O)cc12` [Compound 423] were 9.7 nM and 11.5 nM.
In the same order, the values of `O=P(O)(O)C(F)(F)c1sc2c(OCCCC(F)(F)F)cc(CO)cc2c1Br` [Compound 408] are 684 nM and 518 nM.
Taken in the same sequence, the figures for `O=C(NC(c1cccnc1)C(F)(F)F)c1ccc2sc(C(F)(F)P(=O)(O)O)c(Br)c2c1` (stereo not drawn) [Compound 158] were 456 nM and 1450 nM.
In the case of `O=C(NCc1cnccn1)c1ccc2sc(C(F)(F)P(=O)(O)O)c(Br)c2c1` [Compound 123], the IC50 came to 4290 nM against human PTPN2 (1-387) and 3560 nM at human PTPN1 (1-435).
As for `NC(=O)c1cc(CCCCS(N)(=O)=O)c2sc(C(F)(F)P(=O)(O)O)c(Br)c2c1` [Compound 311], the IC50 against human PTPN2 (1-387) came out at 120 nM; on human PTPN1 (1-435), 140 nM.
Turning to `COC1CC(NC(=O)c2ccc3sc(C(F)(F)P(=O)(O)O)c(Br)c3c2)C1` (stereo not drawn) [Compound 40], the IC50 came out at 5780 nM against human PTPN2 (1-387) and 4200 nM on human PTPN1 (1-435).
Taken in the same sequence, the figures for `COc1cc(C(=O)NCc2cccnn2)cc2c(Br)c(C(F)(F)P(=O)(O)O)sc12` [Compound 163] were 301 nM and 436 nM.
Taken in the same sequence, the figures for `Cc1cnc(F)c(CNC(=O)c2ccc3sc(C(F)(F)P(=O)(O)O)c(Br)c3c2)c1` [Compound 183] were 2000 nM and 1410 nM.
As for `CCCCCOc1cc(C(N)=O)cc2c(Br)c(C(F)(F)P(=O)(O)O)sc12` [Compound 239], the IC50 against human PTPN2 (1-387) was 53.9 nM; on human PTPN1 (1-435) it was 55.4 nM.
In the same order, the values of `O=C(NCc1cccnn1)c1cc(OCCCc2cncs2)c2sc(C(F)(F)P(=O)(O)O)c(Br)c2c1` [Compound 268] are 20 nM and 15.7 nM.
In the same order, the values of `N#Cc1c(C(F)(F)P(=O)(O)O)sc2ccc(C(=O)Nc3ccccc3)cc12` [Compound 3, ((3-cyano-5-(phenylcarbamoyl)benzo[b]thiophen-2-yl)difluoromethyl)phosphonic acid] are 1020 nM and 1130 nM.
Consider `CC1CCS(=O)(=O)C1CCOc1cc(C(N)=O)cc2c(Br)c(C(F)(F)P(=O)(O)O)sc12` (single isomer, unassigned) [Compound 393], for which the IC50 at human PTPN2 (1-387) was determined as 48 nM; at human PTPN1 (1-435), 56.9 nM.
In the same order, the values of `CC1(c2ccc(COc3cc(C(N)=O)cc4c(Br)c(C(F)(F)P(=O)(O)O)sc34)cc2)CC1` [Compound 396] are 20.5 nM and 68.1 nM.
Taken in the same sequence, the figures for `CCn1nccc1NC(=O)c1ccc2sc(C(F)(F)P(=O)(O)O)c(Br)c2c1` [Compound 99] were 3790 nM and 2620 nM.
In the same order, the values of `O=C(NC1CCCN(c2ccccc2)C1)c1ccc2sc(C(F)(F)P(=O)(O)O)c(Br)c2c1` (stereo not drawn) [Compound 76] are 958 nM and 1880 nM.
Take `NC(=O)c1cc(OCc2cc(C(F)(F)F)cc(C(F)(F)F)c2)c2sc(C(F)(F)P(=O)(O)O)c(Br)c2c1` [Compound 384]: the IC50 on human PTPN2 (1-387) is 351 nM; on human PTPN1 (1-435), 299 nM.
For the compound `O=C(NCc1c[nH]nn1)c1ccc2sc(C(F)(F)P(=O)(O)O)c(Br)c2c1` [Compound 140], the IC50 stood at 1810 nM at human PTPN2 (1-387) and 1480 nM at human PTPN1 (1-435).
In the same order, the values of `O=P(O)(O)C(F)(F)c1sc2c(OCCCC(F)(F)F)cc(I)cc2c1Br` [Compound 406, ((3-bromo-5-iodo-7-(4,4,4-trifluorobutoxy)benzo[b]thiophen-2-yl)difluoromethyl)phosphonic acid] are 518 nM and 487 nM.
Consider `NC(=O)c1cc(OCCCC(F)(F)F)c2sc(C(F)(F)P(=O)(O)O)c(Br)c2c1` [Compound 168], for which the IC50 came out at 29.7 nM at human PTPN2 (1-387) and 28.2 nM on human PTPN1 (1-435).
In the same order, the values of `CS(=O)(=O)CCCOc1cc(-c2cnn[nH]2)cc2c(Br)c(C(F)(F)P(=O)(O)O)sc12` [Compound 364] are 2.5 nM and 2.6 nM.
Regarding `O=C(N[C@H]1CC(=O)N(C2CC2)C1)c1ccc2sc(C(F)(F)P(=O)(O)O)c(Br)c2c1` [Compound 79], the results for the IC50 against human PTPN2 (1-387) and at human PTPN1 (1-435) were 9750 nM and 8100 nM, respectively.
In the same order, the values of `Cc1c(C(F)(F)P(=O)(O)O)sc2c(OCC3CC3(F)F)cc(C(N)=O)cc12` (stereo not drawn) [Compound 434] are 438 nM and 482 nM.
Taken in the same sequence, the figures for `N#CC1CCC(NC(=O)c2ccc3sc(C(F)(F)P(=O)(O)O)c(Br)c3c2)C1` (stereo not drawn) [Compound 37] were 3490 nM and 2650 nM.
For the compound `COc1cccc(NC(=O)c2ccc3sc(C(F)(F)P(=O)(O)O)c(Br)c3c2)c1` [Compound 24], the IC50 against human PTPN2 (1-387) was determined as 2160 nM; at human PTPN1 (1-435), 1360 nM.
Regarding `O=C(Nc1ccccc1F)c1ccc2sc(C(F)(F)P(=O)(O)O)c(Br)c2c1` [Compound 32], the IC50 against human PTPN2 (1-387) amounted to 1880 nM; at human PTPN1 (1-435) it was 1310 nM.
As to `Cc1c(C(F)(F)P(=O)(O)O)sc2c(OCCCS(N)(=O)=O)cc(-c3nc[nH]n3)cc12` [Compound 443], the values for the IC50 against human PTPN2 (1-387) and at human PTPN1 (1-435) were 6.17 nM and 5.1 nM, respectively.
Regarding `COc1ncccc1CNC(=O)c1ccc2sc(C(F)(F)P(=O)(O)O)c(Br)c2c1` [Compound 122], the IC50 against human PTPN2 (1-387) was found to be 5370 nM; at human PTPN1 (1-435), 3890 nM.
As to `NC(=O)c1cc(OCc2ccc(Cl)c(Cl)c2)c2sc(C(F)(F)P(=O)(O)O)c(Br)c2c1` [Compound 347], the values for the IC50 on human PTPN2 (1-387) and on human PTPN1 (1-435) were 23.8 nM and 36.5 nM, respectively.
In the same order, the values of `CC1CCCC(NC(=O)c2ccc3sc(C(F)(F)P(=O)(O)O)c(Br)c3c2)C1` (stereo not drawn) [Compound 98] are 4730 nM and 4570 nM.
